Measured values from ChEMBL document CHEMBL1151743, “Dual inhibitors of matrix metalloproteinases and carbonic anhydrases: iminodiacetyl-based hydroxamate-benzenesulfonamide conjugates” (J Med Chem, 2008).

How the values were obtained:
[1] = target: 72 kDa type IV collagenase (Homo sapiens, UniProt P08253); assay: Inhibition of human recombinant MMP2 transfected in mouse melanoma cells; format: cell-based
Homo sapiens [2] = species on record: Homo sapiens; assay: Selectivity for human recombinant CA9 to human recombinant CA2
Collagenase 3 = Collagenase 3 (Homo sapiens, UniProt P45452)
[3] = target: Matrix metalloproteinase-9 (Homo sapiens, UniProt P14780); assay: Inhibition of MMP9
Sequence of Matrix metalloproteinase-9 (P14780 whole entry): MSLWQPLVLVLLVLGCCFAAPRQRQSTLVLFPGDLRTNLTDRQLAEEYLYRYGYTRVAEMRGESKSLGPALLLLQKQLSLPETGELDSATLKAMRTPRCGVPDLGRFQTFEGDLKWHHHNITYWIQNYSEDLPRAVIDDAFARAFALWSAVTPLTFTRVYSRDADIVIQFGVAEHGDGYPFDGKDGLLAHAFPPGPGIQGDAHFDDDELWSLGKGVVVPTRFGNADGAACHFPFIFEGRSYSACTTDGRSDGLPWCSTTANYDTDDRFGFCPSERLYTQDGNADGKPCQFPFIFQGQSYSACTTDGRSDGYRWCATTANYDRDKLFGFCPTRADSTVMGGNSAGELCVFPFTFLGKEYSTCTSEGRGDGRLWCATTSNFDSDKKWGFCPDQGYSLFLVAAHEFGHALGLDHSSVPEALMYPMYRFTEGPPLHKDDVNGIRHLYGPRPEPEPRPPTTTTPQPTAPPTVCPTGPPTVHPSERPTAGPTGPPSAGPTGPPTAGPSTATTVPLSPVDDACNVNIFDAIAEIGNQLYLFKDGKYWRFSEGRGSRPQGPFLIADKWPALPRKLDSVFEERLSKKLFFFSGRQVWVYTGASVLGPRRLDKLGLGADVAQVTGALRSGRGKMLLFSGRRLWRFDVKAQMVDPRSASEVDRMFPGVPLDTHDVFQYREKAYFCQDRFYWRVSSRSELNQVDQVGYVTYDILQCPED

Neutrophil collagenase = Neutrophil collagenase (Homo sapiens, UniProt P22894); assay: Inhibition of MMP8
Sequence of Neutrophil collagenase (P22894 whole entry, the tested form may be a part): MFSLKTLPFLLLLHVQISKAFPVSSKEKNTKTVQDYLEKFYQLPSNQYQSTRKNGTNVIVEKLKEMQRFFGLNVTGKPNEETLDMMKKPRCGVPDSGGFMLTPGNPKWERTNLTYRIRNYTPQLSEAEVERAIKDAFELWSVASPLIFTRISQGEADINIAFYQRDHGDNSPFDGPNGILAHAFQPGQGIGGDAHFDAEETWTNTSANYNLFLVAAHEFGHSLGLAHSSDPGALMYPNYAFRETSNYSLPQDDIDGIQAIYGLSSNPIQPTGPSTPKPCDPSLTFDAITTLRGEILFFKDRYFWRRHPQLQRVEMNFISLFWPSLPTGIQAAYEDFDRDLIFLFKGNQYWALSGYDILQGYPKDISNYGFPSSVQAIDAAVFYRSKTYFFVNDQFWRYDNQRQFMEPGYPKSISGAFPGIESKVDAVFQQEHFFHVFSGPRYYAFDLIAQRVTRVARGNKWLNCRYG

[4] = target: Disintegrin and metalloproteinase domain-containing protein 17 (Homo sapiens, UniProt P78536); assay: Inhibition of TACE
Sequence of Disintegrin and metalloproteinase domain-containing protein 17 (P78536 whole entry, the tested form may be a part): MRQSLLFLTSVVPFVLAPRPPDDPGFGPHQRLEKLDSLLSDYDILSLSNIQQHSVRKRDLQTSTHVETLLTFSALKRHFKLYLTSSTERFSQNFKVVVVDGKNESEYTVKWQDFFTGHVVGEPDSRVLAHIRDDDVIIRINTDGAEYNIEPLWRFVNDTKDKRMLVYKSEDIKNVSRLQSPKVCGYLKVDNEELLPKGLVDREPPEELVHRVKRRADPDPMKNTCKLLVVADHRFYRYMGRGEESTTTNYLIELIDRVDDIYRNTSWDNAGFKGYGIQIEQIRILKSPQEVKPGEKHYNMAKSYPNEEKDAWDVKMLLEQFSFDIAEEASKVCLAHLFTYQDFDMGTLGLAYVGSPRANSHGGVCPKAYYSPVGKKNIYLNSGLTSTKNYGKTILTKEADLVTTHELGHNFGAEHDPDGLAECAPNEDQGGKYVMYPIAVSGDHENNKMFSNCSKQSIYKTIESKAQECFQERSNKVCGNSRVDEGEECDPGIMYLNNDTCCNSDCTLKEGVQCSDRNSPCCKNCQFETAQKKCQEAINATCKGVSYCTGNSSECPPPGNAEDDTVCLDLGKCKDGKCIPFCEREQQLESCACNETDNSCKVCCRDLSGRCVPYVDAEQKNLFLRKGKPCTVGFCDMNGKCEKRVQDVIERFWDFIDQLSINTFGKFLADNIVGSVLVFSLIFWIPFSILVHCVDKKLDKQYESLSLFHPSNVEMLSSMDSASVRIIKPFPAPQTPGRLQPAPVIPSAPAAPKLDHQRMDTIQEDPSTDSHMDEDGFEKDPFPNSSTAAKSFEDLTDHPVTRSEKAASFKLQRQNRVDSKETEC

[5] = target: Matrix metalloproteinase-16 (Homo sapiens, UniProt P51512); assay: Inhibition of MMP16
Sequence of Matrix metalloproteinase-16 (P51512 whole entry, the tested form may be a part): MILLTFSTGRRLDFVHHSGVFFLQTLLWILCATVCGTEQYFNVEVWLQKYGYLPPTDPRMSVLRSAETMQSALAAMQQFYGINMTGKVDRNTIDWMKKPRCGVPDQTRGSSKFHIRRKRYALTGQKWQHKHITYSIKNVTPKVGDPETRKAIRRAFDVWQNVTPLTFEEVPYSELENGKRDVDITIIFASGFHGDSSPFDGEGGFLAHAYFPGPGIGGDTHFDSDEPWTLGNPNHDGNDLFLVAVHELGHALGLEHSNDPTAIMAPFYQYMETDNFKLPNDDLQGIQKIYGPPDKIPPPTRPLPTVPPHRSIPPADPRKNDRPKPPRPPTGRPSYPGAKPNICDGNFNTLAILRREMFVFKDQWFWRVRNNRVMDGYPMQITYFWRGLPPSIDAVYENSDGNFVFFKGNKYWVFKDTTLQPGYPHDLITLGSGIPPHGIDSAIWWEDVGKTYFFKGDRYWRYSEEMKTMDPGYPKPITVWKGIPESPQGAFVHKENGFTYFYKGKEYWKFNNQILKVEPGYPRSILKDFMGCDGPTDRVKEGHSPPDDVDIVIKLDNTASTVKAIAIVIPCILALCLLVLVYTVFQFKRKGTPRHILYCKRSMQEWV

Carbonic anhydrase 9 = Carbonic anhydrase 9 (Homo sapiens, UniProt Q16790); assay: Inhibition of human recombinant CA9 catalytic domain by stopped-flow CO2 hydrase assay
Interstitial collagenase = target: T1, Interstitial collagenase (Homo sapiens, UniProt P03956); assay: Inhibition of MMP1
T1 sequence (P03956 whole entry): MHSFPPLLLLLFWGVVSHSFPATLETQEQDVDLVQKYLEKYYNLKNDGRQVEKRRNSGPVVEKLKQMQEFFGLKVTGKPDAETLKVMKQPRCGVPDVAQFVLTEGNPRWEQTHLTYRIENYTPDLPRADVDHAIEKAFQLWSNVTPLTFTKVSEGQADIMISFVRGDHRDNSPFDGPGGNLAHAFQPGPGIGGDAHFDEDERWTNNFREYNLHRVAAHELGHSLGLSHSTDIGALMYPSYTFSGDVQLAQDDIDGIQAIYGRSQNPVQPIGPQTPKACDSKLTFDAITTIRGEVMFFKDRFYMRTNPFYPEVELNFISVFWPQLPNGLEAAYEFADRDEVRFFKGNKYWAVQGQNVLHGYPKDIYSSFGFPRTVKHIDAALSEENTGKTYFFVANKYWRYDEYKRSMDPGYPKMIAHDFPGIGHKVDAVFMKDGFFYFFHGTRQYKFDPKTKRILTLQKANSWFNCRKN

Carbonic anhydrase 2 = Carbonic anhydrase 2 (Homo sapiens, UniProt P00918)
Description: Inhibition of human recombinant CA2 by stopped-flow CO2 hydrase assay

[6] = target: Matrix metalloproteinase-14 (Homo sapiens, UniProt P50281); assay: Inhibition of MMP14
Carbonic anhydrase 1 = Carbonic anhydrase 1 (Homo sapiens, UniProt P00915)
Sequence of Carbonic anhydrase 1 (P00915 whole entry): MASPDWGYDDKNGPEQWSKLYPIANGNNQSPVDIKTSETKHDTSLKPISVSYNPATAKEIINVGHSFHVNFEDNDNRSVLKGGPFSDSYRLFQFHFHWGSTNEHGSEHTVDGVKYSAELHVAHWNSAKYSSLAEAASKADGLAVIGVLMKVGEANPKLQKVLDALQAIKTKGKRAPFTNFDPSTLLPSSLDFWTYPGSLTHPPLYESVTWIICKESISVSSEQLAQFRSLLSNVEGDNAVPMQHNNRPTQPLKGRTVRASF
Description: Inhibition of human recombinant CA1 by stopped-flow CO2 hydrase assay

Homo sapiens [7] = species on record: Homo sapiens; assay: Selectivity for human recombinant CA9 to human recombinant CA1

Sequence of 72 kDa type IV collagenase (P08253 whole entry): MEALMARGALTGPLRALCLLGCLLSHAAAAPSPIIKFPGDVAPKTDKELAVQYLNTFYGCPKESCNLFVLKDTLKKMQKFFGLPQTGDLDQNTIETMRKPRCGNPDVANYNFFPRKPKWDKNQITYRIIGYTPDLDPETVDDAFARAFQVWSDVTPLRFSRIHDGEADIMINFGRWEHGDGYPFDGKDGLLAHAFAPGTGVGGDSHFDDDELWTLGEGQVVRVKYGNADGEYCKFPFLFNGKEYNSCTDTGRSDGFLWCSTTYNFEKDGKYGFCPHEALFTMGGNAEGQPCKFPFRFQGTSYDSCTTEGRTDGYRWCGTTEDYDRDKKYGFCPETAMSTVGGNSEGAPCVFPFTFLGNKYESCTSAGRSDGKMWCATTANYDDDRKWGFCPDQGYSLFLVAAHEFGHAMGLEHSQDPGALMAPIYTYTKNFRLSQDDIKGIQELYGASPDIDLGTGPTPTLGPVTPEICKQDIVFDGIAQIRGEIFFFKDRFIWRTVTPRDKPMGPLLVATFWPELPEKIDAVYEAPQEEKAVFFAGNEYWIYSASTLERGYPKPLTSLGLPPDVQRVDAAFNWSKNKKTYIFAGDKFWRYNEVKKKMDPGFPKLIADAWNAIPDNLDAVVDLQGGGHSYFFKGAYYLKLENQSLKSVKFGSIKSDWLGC

SMILES	IC50 [1]	Selectivity ratio (Homo sapiens [2])	IC50 (Collagenase 3)	IC50 [3]	IC50 (Neutrophil collagenase)	IC50 [4]	IC50 [5]	Ki (Carbonic anhydrase 9)	IC50 (Interstitial collagenase)	Ki (Carbonic anhydrase 2)	IC50 [6]	Ki (Carbonic anhydrase 1)	Selectivity ratio (Homo sapiens [7])
CC(C)[C@H](C(=O)NO)N(CC(=O)NCCc1ccc(S(N)(=O)=O)cc1)S(=O)(=O)c1ccc(Oc2ccccc2)cc1	0.35 nM	1.3	0.12 nM	0.21 nM	0.29 nM	55 nM	0.31 nM	3.3 nM	7.8 nM	4.2 nM	0.32 nM	730 nM	–
CC(C)[C@H](C(=O)NO)N(CC(=O)O)S(=O)(=O)c1ccc(Oc2ccccc2)cc1	0.5 nM	1.3	0.33 nM	0.77 nM	0.4 nM	2290 nM	1.56 nM	–	59 nM	–	3.9 nM	–	7.9
CC(C)[C@H](C(=O)NO)N(CC(=O)O)S(=O)(=O)c1ccc(-c2ccccc2)cc1	24.7 nM	1.3	–	27.7 nM	4.3 nM	–	–	–	236 nM	–	306 nM	–	7.9
NS(=O)(=O)c1ccc(CCNC(=O)CN(CC(=O)NO)S(=O)(=O)c2ccc(-c3ccccc3)cc2)cc1	16.2 nM	–	–	66 nM	35 nM	–	186 nM	–	542 nM	–	260 nM	–	–
NS(=O)(=O)c1ccc(CCNC(=O)CN(CC(=O)O)S(=O)(=O)c2ccc(Oc3ccccc3)cc2)cc1	2230 nM	–	–	–	4360 nM	–	–	6.4 nM	–	–	8950 nM	3430 nM	–
COc1ccc(S(=O)(=O)N(CC(=O)NO)CC(=O)NCCc2ccc(S(N)(=O)=O)cc2)cc1	25.3 nM	–	–	53.7 nM	59 nM	–	44 nM	13 nM	532 nM	–	89.8 nM	1770 nM	–
NS(=O)(=O)c1ccc(CCNC(=O)CN(CC(=O)O)S(=O)(=O)c2ccc(-c3ccccc3)cc2)cc1	5120 nM	–	–	–	8200 nM	–	–	3.8 nM	–	–	33900 nM	116 nM	–
COc1ccc(S(=O)(=O)N(CC(=O)O)CC(=O)NO)cc1	193 nM	–	–	322 nM	1010 nM	–	996 nM	–	6770 nM	–	1690 nM	–	–
O=C(O)CN(CC(=O)NO)S(=O)(=O)c1ccc(Oc2ccccc2)cc1	1.2 nM	1.3	1.6 nM	3.2 nM	3.7 nM	–	11.4 nM	–	1530 nM	–	14 nM	–	7.9
NS(=O)(=O)c1ccc(CCNC(=O)CN(CC(=O)NO)Cc2ccccc2)cc1	> 100000 nM	–	–	> 300000 nM	–	–	–	–	–	–	> 100000 nM	2340 nM	–
COc1ccc(S(=O)(=O)N(Cc2cccnc2)[C@@H](C(=O)NO)C(C)C)cc1 [CGS-27023A]	–	–	–	–	–	–	6.8 nM	–	–	–	–	–	–
NS(=O)(=O)c1ccc(CCNC(=O)CN(CC(=O)NO)S(=O)(=O)c2ccc(Oc3ccccc3)cc2)cc1	1.57 nM	–	–	0.51 nM	0.74 nM	–	1 nM	–	143 nM	–	2.1 nM	–	–
COc1ccc(S(=O)(=O)N(CC(=O)O)[C@@H](C(=O)NO)C(C)C)cc1	145 nM	1.3	–	62 nM	29.2 nM	–	–	–	235 nM	–	353 nM	–	7.9
